The NIST ThermoML archive (doi:10.1016/j.fluid.2013.09.051)

Experiment: xn = mol fraction of the nth substance listed
Details: Liquid, Time-dependent Raman spectra, x1 = 0

C [methane] + O
binary diffusion coefficient [m2/s]
Details | 273 K | 298 K | 313 K | 353 K | 393 K | 433 K | 473 K
5000 kPa | – | 1.61e-09 | – | 4.85e-09 | 8.59e-09 | – | –
10000 kPa | – | 1.63e-09 | – | 5e-09 | 8.7e-09 | – | –
20000 kPa | 7.02e-10 | 1.64e-09 | 2.39e-09 | 4.98e-09 | 8.68e-09 | 1.25e-08 | 1.71e-08
30000 kPa | – | 1.6e-09 | – | 4.79e-09 | 8.45e-09 | – | –
40000 kPa | – | 1.62e-09 | – | 4.8e-09 | 8.08e-09 | – | –
